Data from patent US20110105474A1, “HETEROCYCLIC DERIVATIVES AS HDAC INHIBITORS” (DAC S.r.l., priority 2008, published 2011).
Structures can show the parent of a compound that is named as a salt.

How the values were obtained:
Assay type in all cases: cell-based
[1] = tested on: HCT-116 cells; assay: Cell growth, CellTiter-Glo Luminescent Cell Viability Assay, HCT-116; conditions: Homo sapiens, 72 h incubation, read-out: IC50 HCT116
Source text: (§1) CellTiter-Glo® Luminescent Cell Viability Assay (Promega) is a homogeneous method of determining the number of viable cells in culture based on quantitation of the present ATP, which indicates the presence of metabolically active cells. The homogeneous assay procedure involves addition of a single reagent (CellTiter-Glo®Reagent) directly to the cells, which leads to cell lysis and generation of a luminescent signal proportional to the amount of the ATP and the number of cells present in culture. The assay relies on the properties of a proprietary thermostable luciferase (Ultra-Glo® recombinant luciferase), which generates a luminescent signal.
(§2) K562, A549 and HCT-116 cells, in exponential growth, were incubated for 72 h with different concentrations of the inhibitors. After 72 h, a volume of CellTiter-Glo® Reagent equal to the volume of cell culture medium was added. The content was mixed for 2 min to induce cell lysis. The luminescence was recorded after further 10 min at RT in order to obtain a stabilized luminescent signal.
(§3) The IC50 was calculated using GraphPad Software.
(§4) IC50 results were allocated to one of 3 ranges as follows: Range A: IC50≦1.0 μM; Range B: from 1.0 to 3.0 μM; Range C: IC50≧3.0 μM.

[2] = tested on: A549 cells; assay: Cell growth, CellTiter-Glo Luminescent Cell Viability Assay, A549; conditions: Homo sapiens, 72 h incubation
Source text: as §1, §2, §3, §4

[3] = tested on: K562 cells; assay: Cell growth, CellTiter-Glo Luminescent Cell Viability Assay, K562; conditions: Homo sapiens, 72 h incubation
Source text: as §1, §2, §3, §4

SMILES | IC50 [1] | IC50 [2] | IC50 [3]
O=C(/C=C/c1cccc(/C=C/C(=O)N2CCCC(c3ccc(F)cc3)C2)c1)NO (racemic) [Example 84, (±)-(E)-3-(3-{(E)-3-[3-(4-Fluoro-phenyl)-piperidin-1-yl]-3-oxo-propenyl}-phenyl)-N-hydroxy-acrylamide] | ≥ 3000 nM | ≥ 3000 nM | ≥ 3000 nM
O=C(/C=C/c1cccc(/C=C/C(=O)N2CCN(c3ccccc3)CC2)c1)NO [Example 3, (E)-N-Hydroxy-3-{3-[(E)-3-oxo-3-(4-phenyl-piperazin-1-yl)-propenyl]-phenyl}-acrylamide] | ≤ 1000 nM | 1000 to 3000 nM | ≤ 1000 nM
O=C(/C=C/c1ccc(/C=C/C(=O)N2CCN(c3ccccc3)CC2)cc1)NO [Example 7, (E)-N-Hydroxy-3-{4-[(E)-3-oxo-3-(4-phenyl-piperazin-1-yl)-propenyl]-phenyl}-acrylamide] | ≥ 3000 nM | ≥ 3000 nM | ≥ 3000 nM
O=C(/C=C/c1ccc(/C=C/C(=O)N2CCN(c3ccccc3)CC2)cn1)NO [Example 11, (E)-N-Hydroxy-3-{5-[(E)-3-oxo-3-(4-phenyl-piperazin-1-yl)-propenyl]-pyridin-2-yl}-acrylamide] | 1000 to 3000 nM | ≥ 3000 nM | 1000 to 3000 nM
O=C(/C=C/c1cccc(/C=C/C(=O)N2CCN(c3ccccc3)CC2)n1)NO [Example 13, (E)-N-Hydroxy-3-{6-[(E)-3-oxo-3-(4-phenyl-piperazin-1-yl)-propenyl]-pyridin-2-yl}-acrylamide] | 1000 to 3000 nM | 1000 to 3000 nM | 1000 to 3000 nM
O=C(/C=C/c1cccc(/C=C/C(=O)N2CCN(c3cccc(Cl)c3)CC2)n1)NO [Example 15, (E)-3-(6-{(E)-3-[4-(3-Chloro-phenyl)-piperazin-1-yl]-3-oxo-propenyl}-pyridin-2-yl)-N-hydroxy-acrylamide] | 1000 to 3000 nM | ≥ 3000 nM | 1000 to 3000 nM
O=C(/C=C/c1cccc(/C=C/C(=O)N2CCN(C(=O)c3ccccc3)CC2)n1)NO [Example 16, (E)-3-{6-[(E)-3-(4-Benzoyl-piperazin-1-yl)-3-oxo-propenyl]-pyridin-2-yl}-N-hydroxy-acrylamide hydrochloride] | ≥ 3000 nM | ≥ 3000 nM | ≥ 3000 nM
O=C(/C=C/c1cccc(/C=C/C(=O)N2CCC(Cc3ccccc3)CC2)n1)NO [Example 17, (E)-3-{6-[(E)-3-(4-Benzyl-piperidin-1-yl)-3-oxo-propenyl]-pyridin-2-yl}-N-hydroxy-acrylamide hydrochloride] | 1000 to 3000 nM | 1000 to 3000 nM | 1000 to 3000 nM
O=C(/C=C/c1cccc(/C=C/C(=O)N2CCN(c3ccccc3Cl)CC2)n1)NO [Example 18, (E)-3-(6-{(E)-3-[4-(2-Chloro-phenyl)-piperazin-1-yl]-3-oxo-propenyl}-pyridin-2-yl)-N-hydroxy-acrylamide hydrochloride] | ≤ 1000 nM | 1000 to 3000 nM | 1000 to 3000 nM
O=C(/C=C/c1cccc(/C=C/C(=O)N2CCC(c3ccccc3)CC2)n1)NO [Example 19, (E)-N-Hydroxy-3-{6-[(E)-3-oxo-3-(4-phenyl-piperidin-1-yl)-propenyl]-pyridin-2-yl}-acrylamide hydrochloride] | 1000 to 3000 nM | 1000 to 3000 nM | 1000 to 3000 nM
O=C(/C=C/c1cccc(/C=C/C(=O)N2CCN(c3ncccn3)CC2)n1)NO [Example 20, (E)-N-Hydroxy-3{-6-[(E)-3-oxo-3-(4-pyrimidin-2-yl-piperazin-1-yl)-propenyl]-pyridin-2-yl}-acrylamide hydrochloride] | ≥ 3000 nM | ≥ 3000 nM | ≥ 3000 nM
O=C(/C=C/c1cccc(/C=C/C(=O)N2CCN(c3ccc(Cl)cc3)CC2)n1)NO [Example 21, (E)-3-(6-{(E)-3-[4-(4-Chloro-phenyl)-piperazin-1-yl]-3-oxo-propenyl}-pyridin-2-yl)-N-hydroxy-acrylamide hydrochloride] | ≤ 1000 nM | ≤ 1000 nM | ≤ 1000 nM
O=C(/C=C/c1cccc(/C=C/C(=O)N2CCN(Cc3ccccc3)CC2)n1)NO [Example 22, (E)-3-{6-[(E)-3-(4-Benzyl-piperazin-1-yl)-3-oxo-propenyl]-pyridin-2-yl}-N-hydroxy-acrylamide hydrochloride] | 1000 to 3000 nM | ≥ 3000 nM | 1000 to 3000 nM
O=C(/C=C/c1cccc(/C=C/C(=O)N2CCN(CCc3ccccc3)CC2)n1)NO [Example 23, (E)-N-Hydroxy-3-{6-[(E)-3-oxo-3-(4-phenethyl-piperazin-1-yl)-propenyl]-pyridin-2-yl}-acrylamide hydrochloride] | 1000 to 3000 nM | ≥ 3000 nM | 1000 to 3000 nM
O=C(/C=C/c1cccc(/C=C/C(=O)N2CCC(C(=O)c3ccccc3)CC2)n1)NO [Example 24, (E)-3-{6-[(E)-3-(4-Benzoyl-piperidin-1-yl)-3-oxo-propenyl]-pyridin-2-yl}-N-hydroxy-acrylamide hydrochloride] | 1000 to 3000 nM | ≥ 3000 nM | 1000 to 3000 nM
O=C(/C=C/c1cccc(/C=C/C(=O)N2CC=C(c3ccccc3)CC2)n1)NO [Example 26, (E)-N-Hydroxy-3-{6-[(E)-3-oxo-3-(4-phenyl-3,6-dihydro-2H-pyridin-1-yl)-propenyl]-pyridin-2-yl}-acrylamide hydrochloride] | ≤ 1000 nM | 1000 to 3000 nM | 1000 to 3000 nM
Cc1cccc(C)c1C1CCN(C(=O)/C=C/c2cccc(/C=C/C(=O)NO)n2)CC1 [Example 27, (E)-3-(6-{(E)-3-[4-(2,6-Dimethyl-phenyl)-piperidin-1-yl]-3-oxo-propenyl}-pyridin-2-yl)-N-hydroxy-acrylamide hydrochloride] | 1000 to 3000 nM | 1000 to 3000 nM | 1000 to 3000 nM
N#CC1(c2ccccc2)CCN(C(=O)/C=C/c2cccc(/C=C/C(=O)NO)n2)CC1 [Example 28, (E)-3-{6-[(E)-3-(4-Cyano-4-phenyl-piperidin-1-yl)-3-oxo-propenyl]-pyridin-2-yl}-N-hydroxy-acrylamide hydrochloride] | 1000 to 3000 nM | ≥ 3000 nM | 1000 to 3000 nM
O=C(/C=C/c1cccc(/C=C/C(=O)N2CCN(c3ccccn3)CC2)n1)NO [Example 29, (E)-N-Hydroxy-3-{6-[(E)-3-oxo-3-(4-pyridin-2-yl-piperazin-1-yl)-propenyl]-pyridin-2-yl}-acrylamide hydrochloride] | ≥ 3000 nM | ≥ 3000 nM | ≥ 3000 nM
Cc1cccc(C)c1N1CCN(C(=O)/C=C/c2cccc(/C=C/C(=O)NO)n2)CC1 [Example 31, (E)-3-(6-{(E)-3-[4-(2,6-Dimethyl-phenyl)-piperazin-1-yl]-3-oxo-propenyl}-pyridin-2-yl)-N-hydroxy-acrylamide hydrochloride] | 1000 to 3000 nM | ≥ 3000 nM | 1000 to 3000 nM
O=C(/C=C/c1cccc(/C=C/C(=O)N2CCC3(CC2)C(=O)NCN3c2ccccc2)n1)NO [Example 32, (E)-N-Hydroxy-3-{6-[(E)-3-oxo-3-(4-oxo-1-phenyl-1,3,8-triaza-spiro[4.5]dec-8-yl)-propenyl]-pyridin-2-yl}-acrylamide hydrochloride] | ≥ 3000 nM | ≥ 3000 nM | ≥ 3000 nM
COc1ccc(N2CCN(C(=O)/C=C/c3cccc(/C=C/C(=O)NO)n3)CC2)cc1 [Example 34, (E)-N-Hydroxy-3-(6-{(E)-3-[4-(4-methoxy-phenyl)-piperazin-1-yl]-3-oxo-propenyl}-pyridin-2-yl)-acrylamide hydrochloride] | ≤ 1000 nM | 1000 to 3000 nM | 1000 to 3000 nM
O=C(/C=C/c1cccc(/C=C/C(=O)N2CCN(c3ccc(C(F)(F)F)cc3)CC2)n1)NO [Example 35, (E)-N-Hydroxy-3-(6-{(E)-3-oxo-3-[4-(4-trifluoromethyl-phenyl)-piperazin-1-yl]-propenyl}-pyridin-2-yl)-acrylamide hydrochloride] | ≤ 1000 nM | ≤ 1000 nM | 1000 to 3000 nM
N#Cc1ccc(N2CCN(C(=O)/C=C/c3cccc(/C=C/C(=O)NO)n3)CC2)cc1 [Example 36, (E)-3-(6-{(E)-3-[4-(4-Cyano-phenyl)-piperazin-1-yl]-3-oxo-propenyl}-pyridin-2-yl)-N-hydroxy-acrylamide hydrochloride] | ≥ 3000 nM | ≥ 3000 nM | ≥ 3000 nM
O=C(/C=C/c1cccc(/C=C/C(=O)N2CCN(c3ccc(F)cc3)CC2)n1)NO [Example 37, (E)-3-(6-{(E)-3-[4-(4-Fluoro-phenyl)-piperazin-1-yl]-3-oxo-propenyl}-pyridin-2-yl)-N-hydroxy-acrylamide hydrochloride] | ≤ 1000 nM | 1000 to 3000 nM | 1000 to 3000 nM
O=C(/C=C/c1cccc(/C=C/C(=O)N2CCN(c3ccc(Br)cc3)CC2)n1)NO [Example 38, (E)-3-(6-{(E)-3-[4-(4-Bromo-phenyl)-piperazin-1-yl]-3-oxo-propenyl}-pyridin-2-yl)-N-hydroxy-acrylamide hydrochloride] | ≤ 1000 nM | ≤ 1000 nM | ≤ 1000 nM
O=C(/C=C/c1cccc(/C=C/C(=O)N2CCN(c3ccc(OCc4ccccc4)cc3)CC2)n1)NO [Example 39, (E)-3-(6-{(E)-3-[4-(4-Benzyloxy-phenyl)-piperazin-1-yl]-3-oxo-propenyl}-pyridin-2-yl)-N-hydroxy-acrylamide hydrochloride] | 1000 to 3000 nM | ≥ 3000 nM | 1000 to 3000 nM
